Assay results reported in paper PMC5225183, “Fingerprinting of neurotoxic compounds using a mouse embryonic stem cell dual luminescence reporter assay” (Archives of Toxicology, 2016).
“Also recorded” adds a separate entry of the source. Like-named read-outs stand apart in the source and are kept apart here. Marks after values point to notes of the source that are not given here.

B1: G-CSF: Hormone stimulating granulopoiesis; Peptide/Protein (protein, UniProt P09919 31-207, looked up)
Granulocyte …: TPLGPASSLPQSFLLKCLEQVRKIQGDGAALQEKLVSECATYKLCHPEELVLLGHSLGIPWAPLSSCPSQALQLAGCLSQLHSGLFLYQGLLQALEGISPELGPTLDTLQLDVADFATTIWQQMEELGMAPALQPTQGAMPAFASAFQRRAGGVLVASHLQSFLEVSYRVLRHLAQP

Columns and labels:
[1] = test system: ESCs and ESC-derived neurons; experiment: Dual luminescence reporter test system, all readouts in ESCs and ESC-derived neurons
In short: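 CGR8-2Luc mouse ESCs (dual reporter: Tα1-FLuc neural, EF1α-RLuc general) exposed 48 h after 24 h plating; ESC-derived neurons re-plated day 5 in N2/bFGF medium. Luciferase normalized to DMSO controls; PI (50 µg/ml, 2 h) measured DNA content as cytotoxicity. Curves scored by ≥30% significant change (ANOVA/Dunnett).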

[2] = cited from earlier work; for Concentration in humans (increase in blood mercury levels after vaccination): ref Pichichero et al. ([2008])
[3] = Table S1, three classes; ref per compound in the footnotes of Table S1; cited from earlier work
[4] = ESCs and neurons, FLuc, RLuc, PI
[5] = reporter activity changes in the non-cytotoxic concentration range, highest possible number 4

| Molecule | Number of non-cytotoxic changes ([1]; mouse, 48 h) | Concentration in humans ([2]; ref Zimmer et al. ([2014])) | class based on clinical evidence for neurotoxicity [3] | Number of non-cytotoxic changes [1, 5] | further results |
| --- | --- | --- | --- | --- | --- |
| C[C@]12CC[C@H](O)CC1=CC[C@@H]1[C@@H]2CC[C@]2(C)C(c3cccnc3)=CC[C@@H]12 [Abiraterone] | 1 | 0.65^k µM | Possibly (developmental) |  | concentration up to which no cytotoxicity in the PI assay ([1]; mouse, 48 h): > 100 µM |
| O=C(/C=C/c1cccc(S(=O)(=O)Nc2ccccc2)c1)NO [Belinostat] | 1 |  | Possibly (developmental) |  | Concentration in humans ([2]; ref Wei et al. ([2014])): 0.36^f µM |
| Nc1ccccc1NC(=O)c1ccc(CNC(=O)OCc2cccnc2)cc1 [Entinostat] | 1 |  |  |  |  |
| COc1cc2ncnc(Nc3ccc(F)c(Cl)c3)c2cc1OCCCN1CCOCC1 [Gefitinib] | 0 | 1.2^k µM | Possibly (developmental) |  |  |
| COC1=C2C[C@@H](C)C[C@H](OC)[C@H](O)[C@@H](C)/C=C(\C)[C@H](OC(N)=O)[C@@H](OC)/C=C\C=C(/C)C(=O)NC(=CC1=O)C2=O [Geldanamycin] | 1 | 0.8^k µM | Possibly (developmental) |  | result in the dual luminescence reporter test system [1]: considerable cytotoxicity; EC20 ([1]; in vitro system (neurons and ESCs)): 1 to 10 nM |
| [Br][Hg][Br] [Mercury bromide] |  |  | Possibly (developmental) |  | Number of non-cytotoxic changes [1]: 1 |
| COCC(=O)O [Methoxyacetic acid] |  |  | Possibly (developmental) | 1 | result in the dual luminescence reporter test system [1, 4]: very weak signal; also recorded: relatively weak signal; Concentration in humans (human exposure concentration) ([2]; ref Zimmer et al. ([2014])): 60^k (human exposure concentration) µM |
| [CH3][Hg][Cl] [Methylmercury] |  |  | Well-established (developmental) | 1 | Concentration in humans ([2]; ref Krug et al. ([2013b])): 0.005–0.5^e µM; Concentration in humans ([2]; ref Krug et al. ([2013b]), listed as methylmercury): 0.005 to 0.5 µM |
| COC(=O)c1ccc2c(c1)NC(=O)/C2=C(\Nc1ccc(N(C)C(=O)CN2CCN(C)CC2)cc1)c1ccccc1 [Nintedanib] | 2 | 0.074^k µM | Possibly (developmental) |  |  |
| COc1ccc2[nH]c([S+]([O-])Cc3ncc(C)c(OC)c3C)nc2c1 (stereo not shown) [Omeprazole] | 0 |  | Non-neurotoxic |  | result in the dual luminescence reporter test system [1]: negative; Concentration in humans ([2]; ref Linden et al. ([2007])): 0.8^b µM |
| Brc1ccc(Oc2cc(Br)c(Br)cc2Br)c(Br)c1 [PBDE-99] |  |  | Well-established (developmental) | 1 | result in the dual luminescence reporter test system [1, 4]: potentially neurotoxic; Concentration in humans (human exposure concentration) ([2]; ref Zimmer et al. ([2014])): 97*10^−6k (human exposure concentration) µM; Human exposure concentrations ([2]; ref Zimmer et al. ([2014])): 5 to 100 pM |
| Cc1[nH]c2ccccc2c1CCNCc1ccc(/C=C/C(=O)NO)cc1 [Panobinostat] | 1 |  | Possibly (developmental) |  | result in the dual luminescence reporter test system [1]: no enhancement of promoter activities under any condition; Concentration in humans ([2]; ref Bauer et al. ([2014])): 0.036–0.045^h µM |
| CC(C)NCC(O)COc1cccc2ccccc12 (stereo not shown) [Propranolol] | 2 |  | Non-neurotoxic |  | Concentration in humans ([2]; ref International Programme on Chemical Safety): 0.12–0.19^d µM |
| O=C(NC[C@H]1CN(c2ccc(N3CCOCC3=O)cc2)C(=O)O1)c1ccc(Cl)s1 [Rivaroxaban] | 0 | 0.69^k µM | Non-neurotoxic |  |  |
| C/C(O)=C(\C#N)C(=O)Nc1ccc(C(F)(F)F)cc1 [Teriflunomide] |  | 10.8^k µM |  | 1 | concentration range of various effects [1]: 4 to 40 µM; result in the dual luminescence reporter test system [1, 4]: no effects on general promoter activity and/or on PI fluorescence |
| C[CH2][Hg][S]c1ccccc1C(=O)[O-].[Na+] [Thimerosal] |  |  | Possibly (developmental) |  | Number of non-cytotoxic changes [1]: 0; increase in blood mercury levels after vaccination ([2]; conversion of <5 ng/ml, ref Pichichero et al. [2008]): ~25 nM; Concentration in humans (increase in blood mercury levels after vaccination) [2]: Max 5 ng/ml^j; Concentration in humans (increase in blood mercury levels after vaccination) ([2]; listed as thimerosal): < 5 ng/mL |
| O=c1[nH]c(=O)c2[nH]c(=O)[nH]c2[nH]1 [Uric acid] |  |  | Non-neurotoxic | 0 | result in the dual luminescence reporter test system [1, 4]: negative |
| CCCC(CCC)C(=O)O [Valproic acid] | 2 |  | Well-established (developmental) |  | Concentration in humans ([2]; ref Krug et al. ([2013b])): 500–1000^e µM |
| Erythropoietin: EpoR agonist controlling erythropoiesis and neurogenesis; Peptide/Protein |  | 0.0003^k µM | Non-neurotoxic | 0 |  |
| Oxytocin |  | 0.002^k µM | Non-neurotoxic | 0 | result in the dual luminescence reporter test system [1, 4]: did not have any effects |
| B1 |  | 1.3*10^−6k µM | Non-neurotoxic | 0 |  |
